Ki data for 1 compound are collected here from publication PMC4780411 (Journal of chemical information and modeling, 2015).

One assay addresses T1, human ERα (Homo sapiens, UniProt P03372).
T1 sequence (P03372 1-595): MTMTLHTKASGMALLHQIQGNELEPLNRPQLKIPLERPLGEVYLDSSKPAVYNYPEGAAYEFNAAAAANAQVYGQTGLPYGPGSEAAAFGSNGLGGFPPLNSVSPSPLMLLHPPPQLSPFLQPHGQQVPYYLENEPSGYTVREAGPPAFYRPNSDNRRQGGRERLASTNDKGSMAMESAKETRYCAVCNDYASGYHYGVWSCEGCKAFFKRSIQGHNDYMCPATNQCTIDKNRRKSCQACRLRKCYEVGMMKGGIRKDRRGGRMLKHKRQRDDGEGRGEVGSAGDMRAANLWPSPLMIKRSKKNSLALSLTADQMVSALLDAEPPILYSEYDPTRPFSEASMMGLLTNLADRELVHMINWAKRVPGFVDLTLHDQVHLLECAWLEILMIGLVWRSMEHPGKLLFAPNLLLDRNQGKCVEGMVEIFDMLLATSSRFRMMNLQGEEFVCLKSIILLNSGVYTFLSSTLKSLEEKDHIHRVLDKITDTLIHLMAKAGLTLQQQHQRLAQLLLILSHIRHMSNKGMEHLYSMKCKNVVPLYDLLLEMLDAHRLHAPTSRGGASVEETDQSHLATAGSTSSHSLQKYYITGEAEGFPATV
Nature of the assay: competitive radiometric binding assay with [3H]estradiol, ERα.

The target of another assay is human ERβ (Homo sapiens, UniProt Q92731). Nature of the assay: competitive radiometric binding assay with [3H]estradiol, ERβ.
Sequence of human ERβ (Q92731 whole entry): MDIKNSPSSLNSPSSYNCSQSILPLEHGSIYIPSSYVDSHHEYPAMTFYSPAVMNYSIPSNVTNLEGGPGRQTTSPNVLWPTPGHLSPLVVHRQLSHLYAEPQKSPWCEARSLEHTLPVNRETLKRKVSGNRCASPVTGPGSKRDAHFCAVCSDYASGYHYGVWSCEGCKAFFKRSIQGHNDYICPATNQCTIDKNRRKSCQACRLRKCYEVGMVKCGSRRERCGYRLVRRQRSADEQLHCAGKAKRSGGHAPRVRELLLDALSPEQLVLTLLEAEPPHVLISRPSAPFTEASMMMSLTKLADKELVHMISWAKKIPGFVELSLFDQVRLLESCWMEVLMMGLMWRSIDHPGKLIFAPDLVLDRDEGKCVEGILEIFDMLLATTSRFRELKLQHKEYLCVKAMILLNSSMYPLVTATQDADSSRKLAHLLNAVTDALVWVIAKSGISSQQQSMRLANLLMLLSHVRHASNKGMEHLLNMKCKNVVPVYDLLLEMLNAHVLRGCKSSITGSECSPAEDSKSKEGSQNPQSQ

For orientation: Ki means a measure of affinity in units of concentration, obtained from inhibition or displacement. The low end stands for tighter binding, the high end for weaker binding. With `O=C1C[C@@H](c2ccc(O)cc2)Oc2cc(O)cc(O)c21` [NCI-34875, Naringenin], the Ki on human ERα worked out at 2560 ± 500 nM; on human ERβ it was 3100 ± 900 nM.
